{
  "source": "patent US11427605B2",
  "about": "“Crystalline forms of 5-chloro-N4-[-2-(dimethylphosphoryl) phenyl]-N2-{2-methoxy-4-[4-(4-methylpiperazin-1-yl) piperidin-1-yl] phenyl} pyrimidine-2,4-diamine” (ARIAD Pharmaceuticals, Inc., priority 2014, dated 2022)",
  "key": {"[1]": {"details": "for Temperature at which (partial) conversion to Form A was observed / Temperature at which conversion to Form A was complete: sample started as the labelled form; for Temperature of dehydration to anhydrous Form B / Temperature of solid-solid transition to Form A: ambient humidity, increasing temperature; for Temperature of solid-solid transition to Form A: not reversible", "method": "High resolution X-ray powder diffraction patterns disclosed herein were collected on a D8 Advance system in the Brag-Brentano geometry equipped with LynxEye solid state detector. The radiation used for collecting the data was CuKα1 (λ=1.54056 Å) monochromatized by germanium crystal. The patterns were collected in the range of 4-41.5°2θ, with a step in the range of 0.016 °2θ without further processing. All patterns were taken at room temperature, approximately 295 K. The material was placed in a boron glass capillary of 0.3 mm diameter. For variable humidity and variable temperature experiments disclosed herein, an ANSYCO HT chamber was used. The material was placed on a fixed sample holder that was mounted inside the chamber. The humidity was applied locally and varied from 10% to 80% (dew point). The temperature variation rate was 10° C./min.\nData was collected for Forms A, B, C, and D almost immediately after reaching the target temperature (within approximately 10 min).\nFor Form A, the temperatures used in the experiment were 25, 40, 60, 100, 120, 140, 150, 160, 170, 180, 190, and 200° C. Data collection lasted 20 min per temperature and the stabilization time in between was 10 min.\nFor Form B, the temperatures used in the experiment were 25, 40, 60, 100, 120, 140, 150, 155, 160, 165, 170, 180, and 190° C. Data collection lasted 45 min per temperature and the stabilization time in between was 10 min.\nFor Form C, the temperatures used in the experiment were 25, 40, 60, 70, 80, 100, 120, 140, 150, 155, 160, 165, 170, 175, 180, 190, and 200° C. Data collection lasted 40 min per temperature and the stabilization time in between was 10 min.\nFor Form D, the temperatures used in the experiment were 25, 35, 45, 55, 65, 75, 85, 100, 120, 140, 150, 155, 160, 165, 170, 175, 180, 190, and 200° C. Data collection lasted 10 min for temperatures 25-85° C. with a stabilization time of 1 min, and 40 min for temperatures 100-25° C. with a stabilization time of 10 min."}, "[2]": {"assay": "Variable humidity XRPD", "assay_type": "physicochemical", "details": "30° C.", "procedure": "The temperature variation rate was 10° C./min.\nThe relative humidity was increased from the starting amount, brought up to the maximum, then dried back to the minimum value. The data collection time was 41 min at each step, time starting after equilibration of the relative humidity.\nThe peaks shifts were reversible at RH of about 30%. A sample of Form A was then exposed to 80% RH for 15 h. The peaks shifts had occurred after 90 min, and the extent of the shifts remained constant throughout the exposure at 80% RH for 15 h. Upon return to 10% RH, the peaks shifted to their original position. To investigate the amount of water adsorbed, a new sample of Form A was exposed for 2 h at 80% and a TGMS of this sample was measured.\nFor Form B, the relative humidity was measured at 30° C. The RH % values measured were 10, 30, 50, 60, 65, 70, 75, and 80%. […] At 80% RH the conversion to Form C was completed. Upon desorption, Form C dehydrates to Form B, starting at about 30% RH. At 10% RH the conversion to Form B was completed.\nFor Form C, a hydrate, the relative humidity was measured at 30° C. The experiment was performed starting at the maximum RH and dehydrated, then rehydrated back up to the maximum value. The RH % values measured were 10, 15, 20, 25, 30, 35, 40, 60, and 80%. Upon desorption, Form C dehydrated to Form B, starting at about 25% RH. At 10% RH, the conversion to Form B was complete. Upon sorption, Form B converted to Form C, starting at about 60% RH. At 80% RH the conversion to Form C was complete. The results are consistent with the corresponding experiments of Form B.\nFor Form D, a hydrate, the relative humidity was measured at 30° C. The experiment was performed starting at the maximum RH and dehydrated, then rehydrated back up to the maximum value. The RH % values measured were 10, 15, 20, 25, 30, 35, 40, 60, and 80%. […] Form C dehydrated to Form B, starting at about 20% RH. At 10% RH, the conversion to Form B was complete. Upon sorption, Form B converted to Form C, starting at about 40% RH. At 80% RH, the conversion to Form C was complete."}, "[3]": {"assay": "Dehydration of Forms C and D (drying)", "assay_type": "physicochemical", "procedure": "In Table 25, a list of drying conditions for Form C are presented together with the final solid form.\nIn Table 26, a list of drying processes of Form D are presented. Form D under 5 mbar pressure and at 60° C. led to the formation of Form B after 24 h. In some instances, small quantities of Form C were visible on the XRPD patterns, even after 5 days of drying. This observation could be attributed to different particle morphology (fine particles vs. agglomerates/aggregates). […] In general, depending on the time and pressure, Forms B and C occur."}, "[4]": {"assay": "Remeasurement by XRPD after storage at ambient conditions", "assay_type": "physicochemical", "procedure": "For each experiment, the anti-solvent was added to each solvent vial, with a solvent to anti-solvent ratio of 1:0.25. In the cases where no precipitation occurred, this ratio was increased to 1:1, and if again no precipitation occurred the ratio was increased to 1:4, with a waiting time of 60 minutes between the additions (up to the third addition) and 35 minutes between the third addition and fourth addition. When no crystallization occurred or not enough solids precipitated for separation, samples were kept at 5° C. for 17 hours. The precipitated solids were separated from the liquids by centrifugation and decantation. When decantation could not be applied, the liquid was carefully removed using Pasteur's pipettes. The solids were dried at 200 mbar for 17 hours and analyzed by XRPD and digital imaging. In the cases where no precipitation occurred, the solvents were evaporated at 200 mbar for 17 hours prior to lowering the vacuum to 5 mbar. All obtained solids were analyzed by XRPD and digital imaging. The measuring plates containing the final solid were stored at ambient temperature for 5 weeks. The solid form was assessed again by XRPD. The arrows in Table 18 indicate if the form changed during storage.\nA total of 68 slurry experiments were performed with brigatinib both at room temperature (20° C.) and 40° C., using 34 solvents. In all cases, a solvent volume of 250 μL was used. The slurries were stirred for two weeks. At the end of the slurry time, the vials were centrifuged and solids and mother liquids separated. The solids were analyzed wet and dry by XRPD and digital imaging. The measuring plates were then stored at ambient conditions for 3-4 weeks and another XRPD was obtained of the solid, any form change is shown by an arrow.\nAfter completion of the cycling program, the solids were separated from the mother liquids by centrifugation, dried under 200 mbar for 48 hours (2-ethoxyethanol for 283 hours) and analyzed by XRPD and digital imaging. For the applied crystallization conditions and corresponding obtained solid forms, see Table 24. Solid form (or mixture) following the arrow (→) was obtained upon remeasurement by XRPD after storage of the measuring plates at ambient conditions for 5 weeks.\nIn Table 27, the occurrence of solid forms of brigatinib is given, together with the crystallization methods from which they crystallized and the related solvents. The table provides the results of over 600 experiments with solid forms measured by XRPD wet and/or dry (wet and dry count as separate experiments). In eight cases, no form assignment was made due to low yield. The solid form(s) following the arrow was/were obtained upon remeasurement by XRPD after storage of the measuring plates at ambient conditions for several weeks (2-5 weeks)."}, "[5]": {"assay": "Vapor diffusion onto solids experiments", "assay_type": "physicochemical", "details": "room temperature, two weeks", "procedure": "For the 34 vapor diffusion onto solids experiments, amorphous brigatinib was prepared by grinding the starting material for 4 hours. The vials containing the amorphous brigatinib were left open and placed in closed 40 mL vials containing 2 mL of solvent (see Table 21). The amorphous brigatinib was exposed to solvent vapors at room temperature for two weeks. At the end of the experiment time, the solids were harvested wet and dry and analyzed by XRPD and digital imaging. For the applied crystallization conditions and corresponding obtained solid forms see Table 22."}, "[6]": {"details": "sample started as the labelled form"}},
  "data": [
    {"smiles": "COc1cc(N2CCC(N3CCN(C)CC3)CC2)ccc1Nc1ncc(Cl)c(Nc2ccccc2P(C)(C)=O)n1", "note": "[Form D, brigatinib]", "values": [
      {"measurement": "Temperature at which Form D had converted (partially) to hydrated Form C", "setting": "[1]; VT-XRPD", "value": 35, "unit": "°C"},
      {"measurement": "Temperature at which Form D had converted to dehydrated Form B", "setting": "[1]; VT-XRPD", "value": 45, "unit": "°C"},
      {"measurement": "Temperatures at which the form is unstable", "setting": "[1]; VT-XRPD", "value": "higher than 25 °C"},
      {"measurement": "Temperature at which (partial) conversion to Form A was observed", "setting": "[1]; VT-XRPD", "value": 120, "unit": "°C"},
      {"measurement": "Temperature at which conversion to Form A was complete", "setting": "[1]; VT-XRPD", "value": 150, "unit": "°C"},
      {"measurement": "Temperature of dehydration to anhydrous Form B", "setting": "[1]", "value": "about 40 °C"},
      {"measurement": "Temperature of solid-solid transition to Form A", "setting": "[1]", "value": "about 150 °C"},
      {"measurement": "RH at which Form B starts to convert to hydrated Form C (sorption)", "setting": "[2]; [6]", "value": "about 40 % RH"},
      {"measurement": "RH at which Form C starts to dehydrate to Form B (desorption)", "setting": "[2]; [6]", "value": "about 20 % RH"},
      {"measurement": "RH at which conversion to Form B was complete (desorption)", "setting": "[2]; [6]", "value": 10, "unit": "% RH"},
      {"measurement": "RH at which conversion to Form C was complete (sorption)", "setting": "[2]; [6]", "value": 80, "unit": "% RH"},
      {"measurement": "Solid form at first measurements", "setting": "[2]; 80% RH, freshly prepared Form D", "value": "already partially transformed to Form C"},
      {"measurement": "final solid form after drying", "setting": "[3]; 5 mbar, 60° C., 24 h", "value": "Form B"},
      {"measurement": "final solid form after drying", "setting": "[3]; 50 mbar, 60° C., 86 h", "value": "mixture of Forms B+C"},
      {"measurement": "final solid form after drying", "setting": "[3]; 50 mbar, 60° C., 110 h", "value": "Form B"},
      {"measurement": "final solid form after drying", "setting": "[3]; 15 h at 60° C., 5 mbar", "value": "C + D"},
      {"measurement": "final solid form after drying", "setting": "[3]; 20 h (RT), 5 mbar", "value": "B + C"},
      {"measurement": "final solid form after drying", "setting": "[3]; 20 h at 60° C., 5 mbar", "value": "B + C"},
      {"measurement": "final solid form after drying", "setting": "[3]; 28 h at 60° C., 5 mbar", "value": "B + C"},
      {"measurement": "final solid form after drying", "setting": "[3]; 65 h at 60° C., 50 mbar", "value": "B + C"},
      {"measurement": "final solid form after drying", "setting": "[3]; 86 h at 60° C., 50 mbar", "value": "B + C"},
      {"measurement": "final solid form after drying", "setting": "[3]; 5 days at 60° C., 5 mbar", "value": "B + C"},
      {"measurement": "final solid form after drying", "setting": "[3]; 8 days, closed vial at RT, ambient pressure", "value": "B + C"}
    ]},
    {"smiles": "COc1cc(N2CCC(N3CCN(C)CC3)CC2)ccc1Nc1ncc(Cl)c(Nc2ccccc2P(C)(C)=O)n1", "note": "[Forms A+J, brigatinib]", "values": [
      {"measurement": "Solid form after storage (XRPD)", "setting": "[4]; mixture of Forms A+J, ambient conditions for 3 weeks", "value": "still a mixture of Forms A+J"}
    ]},
    {"smiles": "COc1cc(N2CCC(N3CCN(C)CC3)CC2)ccc1Nc1ncc(Cl)c(Nc2ccccc2P(C)(C)=O)n1", "note": "[Forms A+K, brigatinib]", "values": [
      {"measurement": "Solid form after storage (XRPD)", "setting": "[4]; mixture of Forms A+K, ambient conditions for 3 weeks", "value": "still a mixture of Forms A+K"}
    ]},
    {"smiles": "COc1cc(N2CCC(N3CCN(C)CC3)CC2)ccc1Nc1ncc(Cl)c(Nc2ccccc2P(C)(C)=O)n1", "note": "[amorphous brigatinib]", "values": [
      {"measurement": "Form dry (XRPD)", "setting": "[5]; Chloroform vapors, no solids after 2 weeks", "value": "A + Am"},
      {"measurement": "Form dry (XRPD)", "setting": "[5]; Dichloromethane vapors, no solids after 2 weeks", "value": "Am"},
      {"measurement": "Form dry (XRPD)", "setting": "[5]; Water vapors", "value": "A + B + C"}
    ]},
    {"smiles": "COc1cc(N2CCC(N3CCN(C)CC3)CC2)ccc1Nc1ncc(Cl)c(Nc2ccccc2P(C)(C)=O)n1", "note": "[Form F, brigatinib]", "values": [
      {"measurement": "Solid form after storage (XRPD)", "setting": "[4]; heating or storage at ambient conditions for 8 weeks", "value": "desolvated to give Form A"}
    ]},
    {"smiles": "COc1cc(N2CCC(N3CCN(C)CC3)CC2)ccc1Nc1ncc(Cl)c(Nc2ccccc2P(C)(C)=O)n1", "note": "[Form H, brigatinib]", "values": [
      {"measurement": "Solid form after storage (XRPD)", "setting": "[4]; ambient conditions for 1-3 weeks", "value": "had partially transformed to Form A"}
    ]},
    {"smiles": "COc1cc(N2CCC(N3CCN(C)CC3)CC2)ccc1Nc1ncc(Cl)c(Nc2ccccc2P(C)(C)=O)n1", "note": "[Form E, brigatinib]", "values": [
      {"measurement": "Solid form after storage (XRPD)", "setting": "[4]; several weeks at ambient temperature", "value": "may revert to Form A"}
    ]},
    {"smiles": "COc1cc(N2CCC(N3CCN(C)CC3)CC2)ccc1Nc1ncc(Cl)c(Nc2ccccc2P(C)(C)=O)n1", "note": "[A+L, brigatinib]", "values": [
      {"measurement": "Solid form after storage (XRPD)", "setting": "[4]; mixtures A+L, ambient conditions for 3 weeks", "value": "still a mixture of A+L"}
    ]},
    {"smiles": "COc1cc(N2CCC(N3CCN(C)CC3)CC2)ccc1Nc1ncc(Cl)c(Nc2ccccc2P(C)(C)=O)n1", "note": "[Form G, brigatinib]", "values": [
      {"measurement": "Solid form after storage (XRPD)", "setting": "[4]; ambient conditions for 5 weeks", "value": "had transformed to Form A"}
    ]},
    {"smiles": "COc1cc(N2CCC(N3CCN(C)CC3)CC2)ccc1Nc1ncc(Cl)c(Nc2ccccc2P(C)(C)=O)n1", "note": "[Form C, brigatinib]", "values": [
      {"measurement": "Temperatures at which the form is unstable", "setting": "[1]; VT-XRPD", "value": "higher than 25 °C"},
      {"measurement": "Temperature at which (partial) conversion to Form A was observed", "setting": "[1]; VT-XRPD", "value": 120, "unit": "°C"},
      {"measurement": "Temperature at which conversion to Form A was complete", "setting": "[1]; VT-XRPD", "value": 155, "unit": "°C"},
      {"measurement": "Temperature of dehydration to anhydrous Form B", "setting": "[1]", "value": "about 40 °C"},
      {"measurement": "Temperature of solid-solid transition to Form A", "setting": "[1]", "value": "about 150 °C"},
      {"measurement": "RH at which Form B starts to convert to hydrated Form C (sorption)", "setting": "[2]; [6]", "value": "about 60 % RH"},
      {"measurement": "RH at which conversion to Form B was complete (desorption)", "setting": "[2]; [6]", "value": 10, "unit": "% RH"},
      {"measurement": "RH at which conversion to Form C was complete (sorption)", "setting": "[2]; [6]", "value": 80, "unit": "% RH"},
      {"measurement": "final solid form after drying", "setting": "[3]; 30° C., 1.5 h, ambient pressure", "value": "appears to be stable"},
      {"measurement": "final solid form after drying", "setting": "[3]; 40° C., 1 h, ambient pressure", "value": "converted to Form B"}
    ]}
  ]
}
